Test results taken from publication PMC9856672, “SGC-CAMKK2-1: A Chemical Probe for CAMKK2” (Cells, 2023).

How the values were obtained:
SNRK = molecular target: T1, SNRK (Homo sapiens, UniProt Q9NRH2); assay: KINOMEscan binding assay at 1 μM, SNRK; conditions: Compound Concentration 1000 nM; read-out: Percent Control
T1 construct: purchased Eurofins DiscoverX KINOMEscan
Text: (§1) Supplement cells-12-00287-s001.zip/File S2. KinomeScan data for the CAMKK2 probe and negative control.xlsx, sheet "SGC-CAMKK2-1N" | column: Percent Control

LCK [1] = molecular target: T2, LCK (Homo sapiens, UniProt P06239); assay: KINOMEscan binding assay at 1 μM, LCK; conditions: Compound Concentration 1000 nM; read-out: Percent Control
T2 construct: purchased Eurofins DiscoverX KINOMEscan
Text: as §1

ACVRL1 = molecular target: T3, ACVRL1 (Homo sapiens, UniProt P37023); assay: KINOMEscan at 1 μM, ACVRL1; format: binding; conditions: 1000 nM, read-out: Percent Control
T3 construct: purchased Eurofins DiscoverX KINOMEscan
Text: as §1

MST3 = molecular target: T4, MST3 (Homo sapiens, UniProt Q9Y6E0); assay: KINOMEscan binding assay at 1 μM, MST3; conditions: Compound Concentration 1000 nM; read-out: Percent Control
T4 construct: purchased Eurofins DiscoverX KINOMEscan
Text: as §1

MAP3K4 = molecular target: T5, MAP3K4 (Homo sapiens, UniProt Q9Y6R4); assay: KINOMEscan at 1 μM, MAP3K4; format: binding; conditions: 1000 nM, read-out: Percent Control
T5 construct: purchased Eurofins DiscoverX KINOMEscan
Text: as §1

CSNK1E = molecular target: T6, CSNK1E (Homo sapiens, UniProt P49674); assay: KINOMEscan at 1 μM, CSNK1E; format: binding; conditions: 1000 nM, read-out: Percent Control
T6 construct: purchased Eurofins DiscoverX KINOMEscan
Text: as §1

AURKA = molecular target: T7, AURKA (Homo sapiens, UniProt O14965); assay: KINOMEscan at 1 μM, AURKA; format: binding; conditions: 1000 nM, read-out: Percent Control
T7 construct: purchased Eurofins DiscoverX KINOMEscan
Text: as §1

TRKA = molecular target: T8, TRKA (Homo sapiens, UniProt P04629); assay: KINOMEscan at 1 μM, TRKA; format: binding; conditions: 1000 nM, read-out: Percent Control
T8 construct: purchased Eurofins DiscoverX KINOMEscan
Text: as §1

FLT3(K663Q) = molecular target: T9, FLT3(K663Q) (Homo sapiens, UniProt P36888, K663Q); assay: KINOMEscan binding assay at 1 μM, FLT3(K663Q); conditions: Compound Concentration 1000 nM; read-out: Percent Control
T9 construct: purchased Eurofins DiscoverX KINOMEscan
Text: as §1

SgK110 = molecular target: T10, SgK110 (Homo sapiens, UniProt P0C264); assay: KINOMEscan at 1 μM, SgK110; format: binding; conditions: 1000 nM, read-out: Percent Control
T10 construct: purchased Eurofins DiscoverX KINOMEscan
Text: as §1

NEK9 [2] = molecular target: T11, NEK9 (Homo sapiens, UniProt Q8TD19); assay: KINOMEscan binding assay at 1 μM, NEK9; conditions: Compound Concentration 1000 nM; read-out: Percent Control
T11 construct: purchased Eurofins DiscoverX KINOMEscan
Text: as §1

TNNI3K = molecular target: T12, TNNI3K (Homo sapiens, UniProt Q59H18); assay: KINOMEscan at 1 μM, TNNI3K; format: binding; conditions: 1000 nM, read-out: Percent Control
T12 construct: purchased Eurofins DiscoverX KINOMEscan
Text: as §1

CDC2L2 = molecular target: T13, CDC2L2 (Homo sapiens, UniProt Q9UQ88); assay: KINOMEscan at 1 μM, CDC2L2; format: binding; conditions: 1000 nM, read-out: Percent Control
T13 construct: purchased Eurofins DiscoverX KINOMEscan
Text: as §1

STK39 = molecular target: T14, STK39 (Homo sapiens, UniProt Q9UEW8); assay: KINOMEscan at 1 μM, STK39; format: binding; conditions: 1000 nM, read-out: Percent Control
T14 construct: purchased Eurofins DiscoverX KINOMEscan
Text: as §1

PIK3C2G = molecular target: T15, PIK3C2G (Homo sapiens, UniProt O75747); assay: KINOMEscan binding assay at 1 μM, PIK3C2G; conditions: Compound Concentration 1000 nM; read-out: Percent Control
T15 construct: purchased Eurofins DiscoverX KINOMEscan
Text: as §1

ADCK4 = molecular target: T16, ADCK4 (Homo sapiens, UniProt Q96D53); assay: KINOMEscan at 1 μM, ADCK4; format: binding; conditions: 1000 nM, read-out: Percent Control
T16 construct: purchased Eurofins DiscoverX KINOMEscan
Text: as §1

PRKR = molecular target: T17, PRKR (Homo sapiens, UniProt P19525); assay: DiscoverX KINOMEscan binding assay at 1 μM, PRKR; conditions: PRKR (EIF2AK2); Compound Concentration 1000 nM; read-out: Percent Control
T17 construct: purchased Eurofins DiscoverX KINOMEscan
Text: (§2) Supplement cells-12-00287-s001.zip/File S2. KinomeScan data for the CAMKK2 probe and negative control.xlsx, sheet "SGC-CAMKK2-1" | column: Percent Control

CTK = molecular target: T18, CTK (Homo sapiens, UniProt P42679); assay: KINOMEscan 1 μM, CTK; format: binding; conditions: 1000 nM; Entrez MATK; read-out: Percent Control
T18 construct: purchased Eurofins DiscoverX KINOMEscan
Text: as §2

CSNK1G2 = molecular target: T19, CSNK1G2 (Homo sapiens, UniProt P78368); assay: KINOMEscan 1 μM, CSNK1G2; format: binding; conditions: 1000 nM; Entrez CSNK1G2; read-out: Percent Control
T19 construct: purchased Eurofins DiscoverX KINOMEscan
Text: as §2

MAPKAPK5 = molecular target: T20, MAPKAPK5 (Homo sapiens, UniProt Q8IW41); assay: KINOMEscan 1 μM, MAPKAPK5; format: binding; conditions: 1000 nM; Entrez MAPKAPK5; read-out: Percent Control
T20 construct: purchased Eurofins DiscoverX KINOMEscan
Text: as §2

[3] = molecular target: T21, RPS6KA5(Kin.Dom.1-N-terminal) (Homo sapiens, UniProt O75582); assay: KINOMEscan 1 μM, RPS6KA5(Kin.Dom.1-N-terminal); format: binding; conditions: 1000 nM; Entrez RPS6KA5; read-out: Percent Control
T21 construct: RPS6KA5(Kin.Dom.1-N-terminal); purchased Eurofins DiscoverX KINOMEscan
Text: as §2

NEK7 = molecular target: T22, NEK7 (Homo sapiens, UniProt Q8TDX7); assay: KINOMEscan 1 μM, NEK7; format: binding; conditions: 1000 nM; Entrez NEK7; read-out: Percent Control
T22 construct: purchased Eurofins DiscoverX KINOMEscan
Text: as §2

LCK [4] = molecular target: T2, LCK; assay: KINOMEscan 1 μM, LCK; format: binding; conditions: 1000 nM; Entrez LCK; read-out: Percent Control
Text: as §2

LOK = molecular target: T23, LOK (Homo sapiens, UniProt O94804); assay: KINOMEscan 1 μM, LOK; format: binding; conditions: 1000 nM; Entrez STK10; read-out: Percent Control
T23 construct: purchased Eurofins DiscoverX KINOMEscan
Text: as §2

AKT1 = molecular target: T24, AKT1 (Homo sapiens, UniProt P31749); assay: KINOMEscan 1 μM, AKT1; format: binding; conditions: 1000 nM; Entrez AKT1; read-out: Percent Control
T24 construct: purchased Eurofins DiscoverX KINOMEscan
Text: as §2

[5] = molecular target: T25, RPS6KA4(Kin.Dom.2-C-terminal) (Homo sapiens, UniProt O75676); assay: DiscoverX KINOMEscan binding assay at 1 μM, RPS6KA4(Kin.Dom.2-C-terminal); conditions: Compound Concentration 1000 nM, read-out: Percent Control
T25 construct: RPS6KA4(Kin.Dom.2-C-terminal); purchased Eurofins DiscoverX KINOMEscan
Text: as §2

KIT(D816V) = molecular target: T26, KIT(D816V) (Homo sapiens, UniProt P10721, D816V); assay: KINOMEscan 1 μM, KIT(D816V); format: binding; conditions: 1000 nM; Entrez KIT; read-out: Percent Control
T26 construct: purchased Eurofins DiscoverX KINOMEscan
Text: as §2

PIP5K1C = molecular target: T27, PIP5K1C (Homo sapiens, UniProt O60331); assay: KINOMEscan 1 μM, PIP5K1C; format: binding; conditions: 1000 nM; Entrez PIP5K1C; read-out: Percent Control
T27 construct: purchased Eurofins DiscoverX KINOMEscan
Text: as §2

EGFR(L858R,T790M) = molecular target: T28, EGFR(L858R,T790M) (Homo sapiens, UniProt P00533, L858R/T790M); assay: KINOMEscan 1 μM, EGFR(L858R,T790M); format: binding; conditions: 1000 nM; Entrez EGFR; read-out: Percent Control
T28 construct: purchased Eurofins DiscoverX KINOMEscan
Text: as §2

HIPK2 = molecular target: T29, HIPK2 (Homo sapiens, UniProt Q9H2X6); assay: KINOMEscan 1 μM, HIPK2; format: binding; conditions: 1000 nM; Entrez HIPK2; read-out: Percent Control
T29 construct: purchased Eurofins DiscoverX KINOMEscan
Text: as §2

CDK9 = molecular target: T30, CDK9 (Homo sapiens, UniProt P50750); assay: KINOMEscan 1 μM, CDK9; format: binding; conditions: 1000 nM; Entrez CDK9; read-out: Percent Control
T30 construct: purchased Eurofins DiscoverX KINOMEscan
Text: as §2

PRKG1 = molecular target: T31, PRKG1 (Homo sapiens, UniProt Q13976); assay: DiscoverX KINOMEscan binding assay at 1 μM, PRKG1; conditions: Compound Concentration 1000 nM, read-out: Percent Control
T31 construct: purchased Eurofins DiscoverX KINOMEscan
Text: as §2

NEK9 [6] = molecular target: T11, NEK9; assay: KINOMEscan 1 μM, NEK9; format: binding; conditions: 1000 nM; Entrez NEK9; read-out: Percent Control
Text: as §2

T11 sequence (Q8TD19 whole entry): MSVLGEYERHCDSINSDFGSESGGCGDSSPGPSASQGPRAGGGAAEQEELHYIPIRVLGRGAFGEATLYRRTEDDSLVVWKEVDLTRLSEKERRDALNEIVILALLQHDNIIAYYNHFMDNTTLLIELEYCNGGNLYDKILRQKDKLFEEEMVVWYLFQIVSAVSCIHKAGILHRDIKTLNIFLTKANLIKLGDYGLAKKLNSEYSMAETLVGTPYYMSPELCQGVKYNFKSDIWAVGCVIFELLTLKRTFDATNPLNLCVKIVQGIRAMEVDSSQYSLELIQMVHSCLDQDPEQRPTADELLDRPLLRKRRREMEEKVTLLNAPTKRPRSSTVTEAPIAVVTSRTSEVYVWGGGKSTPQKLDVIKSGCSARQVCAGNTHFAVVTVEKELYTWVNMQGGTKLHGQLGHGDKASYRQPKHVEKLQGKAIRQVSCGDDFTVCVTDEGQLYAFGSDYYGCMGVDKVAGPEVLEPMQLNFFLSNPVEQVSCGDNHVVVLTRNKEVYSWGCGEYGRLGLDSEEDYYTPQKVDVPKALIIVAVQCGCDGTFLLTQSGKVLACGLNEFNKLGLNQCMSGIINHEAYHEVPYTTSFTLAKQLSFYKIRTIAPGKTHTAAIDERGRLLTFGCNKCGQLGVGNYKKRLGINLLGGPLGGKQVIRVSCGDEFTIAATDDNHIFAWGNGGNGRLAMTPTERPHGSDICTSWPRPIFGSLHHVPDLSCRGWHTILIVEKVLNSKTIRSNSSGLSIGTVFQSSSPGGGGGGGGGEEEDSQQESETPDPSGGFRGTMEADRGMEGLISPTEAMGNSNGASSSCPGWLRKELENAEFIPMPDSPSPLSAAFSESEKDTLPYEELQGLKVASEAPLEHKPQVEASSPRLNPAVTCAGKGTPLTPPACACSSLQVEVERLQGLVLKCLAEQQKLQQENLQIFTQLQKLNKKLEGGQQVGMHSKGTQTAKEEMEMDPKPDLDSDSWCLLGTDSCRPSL
T2 sequence (P06239 whole entry): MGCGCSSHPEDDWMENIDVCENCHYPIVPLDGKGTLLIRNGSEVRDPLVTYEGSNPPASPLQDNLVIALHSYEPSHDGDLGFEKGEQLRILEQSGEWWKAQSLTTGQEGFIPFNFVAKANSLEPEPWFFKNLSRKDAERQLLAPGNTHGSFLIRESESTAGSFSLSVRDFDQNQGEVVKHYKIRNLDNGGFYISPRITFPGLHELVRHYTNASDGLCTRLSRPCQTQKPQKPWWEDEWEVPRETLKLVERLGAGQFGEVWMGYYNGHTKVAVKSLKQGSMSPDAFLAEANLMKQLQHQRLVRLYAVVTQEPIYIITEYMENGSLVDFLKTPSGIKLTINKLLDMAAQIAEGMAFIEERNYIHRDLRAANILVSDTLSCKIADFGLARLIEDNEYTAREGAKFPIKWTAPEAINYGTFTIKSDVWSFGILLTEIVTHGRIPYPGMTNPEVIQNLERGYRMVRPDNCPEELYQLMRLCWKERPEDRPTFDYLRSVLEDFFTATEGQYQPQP
T15 sequence (O75747 whole entry): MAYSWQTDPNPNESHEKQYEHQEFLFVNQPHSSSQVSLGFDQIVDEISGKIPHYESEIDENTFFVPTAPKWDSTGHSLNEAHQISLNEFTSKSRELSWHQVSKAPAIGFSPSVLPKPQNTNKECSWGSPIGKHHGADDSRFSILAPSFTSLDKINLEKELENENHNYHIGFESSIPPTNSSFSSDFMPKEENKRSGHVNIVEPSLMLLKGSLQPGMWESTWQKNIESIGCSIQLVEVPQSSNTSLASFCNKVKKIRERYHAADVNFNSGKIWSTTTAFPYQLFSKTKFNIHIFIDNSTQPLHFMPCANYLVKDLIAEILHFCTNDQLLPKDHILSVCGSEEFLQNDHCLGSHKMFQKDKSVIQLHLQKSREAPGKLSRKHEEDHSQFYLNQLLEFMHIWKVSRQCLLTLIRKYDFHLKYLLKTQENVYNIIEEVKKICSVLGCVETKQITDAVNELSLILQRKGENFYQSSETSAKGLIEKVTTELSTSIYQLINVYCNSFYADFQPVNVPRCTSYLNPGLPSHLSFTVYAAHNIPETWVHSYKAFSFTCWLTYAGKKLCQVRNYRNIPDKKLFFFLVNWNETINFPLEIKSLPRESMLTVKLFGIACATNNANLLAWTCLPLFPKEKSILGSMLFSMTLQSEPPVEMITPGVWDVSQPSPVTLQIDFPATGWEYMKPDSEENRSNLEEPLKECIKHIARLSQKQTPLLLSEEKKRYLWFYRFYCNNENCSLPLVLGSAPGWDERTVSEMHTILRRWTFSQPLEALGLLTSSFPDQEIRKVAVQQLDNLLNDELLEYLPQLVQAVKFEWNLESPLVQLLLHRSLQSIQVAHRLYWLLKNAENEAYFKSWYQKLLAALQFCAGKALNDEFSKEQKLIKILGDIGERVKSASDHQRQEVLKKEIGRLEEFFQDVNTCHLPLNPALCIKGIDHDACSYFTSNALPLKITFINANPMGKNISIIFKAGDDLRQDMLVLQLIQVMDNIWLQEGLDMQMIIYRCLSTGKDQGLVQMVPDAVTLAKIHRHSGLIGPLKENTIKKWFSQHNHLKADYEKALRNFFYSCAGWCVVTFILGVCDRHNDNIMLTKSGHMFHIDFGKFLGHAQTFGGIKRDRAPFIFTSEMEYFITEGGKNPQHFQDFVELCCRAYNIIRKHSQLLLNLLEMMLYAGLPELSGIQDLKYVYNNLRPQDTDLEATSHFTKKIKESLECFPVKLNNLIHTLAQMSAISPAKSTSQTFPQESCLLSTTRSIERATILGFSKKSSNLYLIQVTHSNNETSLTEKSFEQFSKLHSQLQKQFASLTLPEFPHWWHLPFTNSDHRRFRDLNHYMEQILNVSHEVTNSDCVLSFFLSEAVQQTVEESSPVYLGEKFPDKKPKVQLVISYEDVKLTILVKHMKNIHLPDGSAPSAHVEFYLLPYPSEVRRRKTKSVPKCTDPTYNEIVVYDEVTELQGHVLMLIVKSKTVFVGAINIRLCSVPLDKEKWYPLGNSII
T3 sequence (P37023 22-503): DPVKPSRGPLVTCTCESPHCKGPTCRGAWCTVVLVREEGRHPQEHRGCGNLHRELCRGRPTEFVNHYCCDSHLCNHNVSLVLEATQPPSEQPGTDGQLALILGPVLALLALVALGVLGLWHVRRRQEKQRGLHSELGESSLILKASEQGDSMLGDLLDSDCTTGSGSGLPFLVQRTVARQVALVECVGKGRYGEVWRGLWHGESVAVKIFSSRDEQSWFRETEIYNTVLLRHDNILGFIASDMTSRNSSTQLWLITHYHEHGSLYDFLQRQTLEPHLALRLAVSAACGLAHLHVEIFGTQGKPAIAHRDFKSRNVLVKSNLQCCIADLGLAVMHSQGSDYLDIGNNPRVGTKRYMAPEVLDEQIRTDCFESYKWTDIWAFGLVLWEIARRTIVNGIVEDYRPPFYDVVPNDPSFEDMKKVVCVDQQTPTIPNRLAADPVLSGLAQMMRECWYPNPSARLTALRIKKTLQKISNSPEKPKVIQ
T7 sequence (O14965 whole entry): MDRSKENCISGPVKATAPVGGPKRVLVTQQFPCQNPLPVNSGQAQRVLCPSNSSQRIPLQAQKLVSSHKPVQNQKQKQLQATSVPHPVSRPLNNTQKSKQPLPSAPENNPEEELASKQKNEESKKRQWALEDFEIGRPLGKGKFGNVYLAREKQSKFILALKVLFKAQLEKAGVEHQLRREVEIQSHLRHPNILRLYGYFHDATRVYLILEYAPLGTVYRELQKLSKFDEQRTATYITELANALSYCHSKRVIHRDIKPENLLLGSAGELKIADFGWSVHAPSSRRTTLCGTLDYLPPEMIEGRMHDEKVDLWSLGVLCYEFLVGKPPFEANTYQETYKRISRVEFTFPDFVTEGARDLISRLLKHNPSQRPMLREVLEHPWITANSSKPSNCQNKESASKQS
T16 sequence (Q96D53 whole entry): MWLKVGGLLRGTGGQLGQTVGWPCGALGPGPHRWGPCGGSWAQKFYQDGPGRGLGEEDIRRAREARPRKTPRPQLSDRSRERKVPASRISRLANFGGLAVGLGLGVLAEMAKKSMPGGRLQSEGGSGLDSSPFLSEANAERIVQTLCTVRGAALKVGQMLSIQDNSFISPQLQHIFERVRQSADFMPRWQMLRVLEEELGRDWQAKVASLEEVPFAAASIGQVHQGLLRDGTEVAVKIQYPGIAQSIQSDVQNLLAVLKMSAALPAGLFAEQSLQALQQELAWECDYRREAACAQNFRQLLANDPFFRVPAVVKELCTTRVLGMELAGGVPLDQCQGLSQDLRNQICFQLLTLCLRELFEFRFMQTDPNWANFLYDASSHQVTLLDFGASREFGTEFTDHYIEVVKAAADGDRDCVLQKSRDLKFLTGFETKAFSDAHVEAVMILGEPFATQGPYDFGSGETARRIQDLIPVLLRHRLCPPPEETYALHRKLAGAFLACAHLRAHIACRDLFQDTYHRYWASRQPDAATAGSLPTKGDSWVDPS
T10 sequence (P0C264 whole entry): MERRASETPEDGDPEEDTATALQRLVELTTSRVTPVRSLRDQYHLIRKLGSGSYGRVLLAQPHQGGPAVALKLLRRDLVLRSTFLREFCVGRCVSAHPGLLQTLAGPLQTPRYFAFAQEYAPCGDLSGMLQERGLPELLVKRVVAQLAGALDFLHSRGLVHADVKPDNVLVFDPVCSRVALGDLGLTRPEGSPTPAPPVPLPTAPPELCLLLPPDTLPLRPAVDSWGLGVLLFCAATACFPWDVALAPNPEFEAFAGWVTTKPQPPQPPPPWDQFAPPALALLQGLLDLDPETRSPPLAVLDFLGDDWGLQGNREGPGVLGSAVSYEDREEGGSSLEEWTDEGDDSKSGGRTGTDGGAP

O=C(O)c1ccc(-c2coc3ncc(-c4ccccc4)cc23)cc1Cl [SGC-CAMKK2-1N (UNC-YL-83)]
remaining binding at 1 µM (SNRK): 100%
remaining binding at 1 µM (LCK [1]): 100%
remaining binding at 1 µM (ACVRL1): 100%
remaining binding at 1 µM (MST3): 100%
remaining binding at 1 µM (MAP3K4): 68%
remaining binding at 1 µM (CSNK1E): 92%
remaining binding at 1 µM (AURKA): 74%
remaining binding at 1 µM (TRKA): 38%
remaining binding at 1 µM (FLT3(K663Q)): 100%
remaining binding at 1 µM (SgK110): 69%
remaining binding at 1 µM (NEK9 [2]): 100%
remaining binding at 1 µM (TNNI3K): 95%
remaining binding at 1 µM (CDC2L2): 100%
remaining binding at 1 µM (STK39): 77%
remaining binding at 1 µM (PIK3C2G): 100%
remaining binding at 1 µM (ADCK4): 100%

Cc1cccc(-c2cnc3occ(-c4ccc(C(=O)O)c(C5CCCC5)c4)c3c2)c1 [SGC-CAMKK2-1 (YL-36)]
remaining binding at 1 µM (PRKR): 100%
remaining binding at 1 µM (CTK): 100%
remaining binding at 1 µM (CSNK1G2): 88%
remaining binding at 1 µM (MAPKAPK5): 100%
remaining binding at 1 µM [3]: 98%
remaining binding at 1 µM (NEK7): 100%
remaining binding at 1 µM (LCK [4]): 86%
remaining binding at 1 µM (LOK): 100%
remaining binding at 1 µM (AKT1): 100%
remaining binding at 1 µM [5]: 100%
remaining binding at 1 µM (KIT(D816V)): 100%
remaining binding at 1 µM (PIP5K1C): 99%
remaining binding at 1 µM (EGFR(L858R,T790M)): 100%
remaining binding at 1 µM (HIPK2): 100%
remaining binding at 1 µM (CDK9): 93%
remaining binding at 1 µM (PRKG1): 100%
remaining binding at 1 µM (NEK9 [6]): 100%
